The text below walks through data of patent publication US20240279215A1 (Cytokinetics, Incorporated, priority 2022, published 2024).

The target in the assay is human NAMPT (Homo sapiens (Human), UniProt P43490). Put plainly: NMN fluorescence biochemical assay (human recombinant NAMPT enzyme assay). Summed up:
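Activation of recombinant human NAMPT (6 nM) was tested with 2.5 mM ATP, 20 μM PRPP and 150 μM nicotinamide in 50 mM HEPES pH 7.2 for 60 min at ambient temperature. NMN was derivatized with acetophenone/KOH/formic acid and read by fluorescence (355/460 nm) after 40 min.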

human NAMPT, sequence (P43490 whole entry): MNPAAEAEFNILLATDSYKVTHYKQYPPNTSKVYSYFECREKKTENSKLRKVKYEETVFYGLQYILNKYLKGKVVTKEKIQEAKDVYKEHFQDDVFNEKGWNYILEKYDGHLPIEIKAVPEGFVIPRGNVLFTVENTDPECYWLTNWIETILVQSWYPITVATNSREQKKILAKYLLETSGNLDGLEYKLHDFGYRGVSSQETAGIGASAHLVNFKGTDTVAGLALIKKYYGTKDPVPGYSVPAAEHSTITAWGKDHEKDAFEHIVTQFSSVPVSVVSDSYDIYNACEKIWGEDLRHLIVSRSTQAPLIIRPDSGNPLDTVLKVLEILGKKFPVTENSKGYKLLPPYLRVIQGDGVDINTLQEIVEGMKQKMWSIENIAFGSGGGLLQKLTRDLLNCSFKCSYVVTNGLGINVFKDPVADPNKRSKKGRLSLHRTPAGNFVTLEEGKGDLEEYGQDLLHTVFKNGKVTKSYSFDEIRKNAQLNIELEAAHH

As a reminder, the EC50 is the concentration needed to bring the measured effect to its halfway point. Take `C[C@H](NC(=O)[C@H]1C[C@@H]2[C@H](C1)C2(F)F)c1ccc(NC(=O)OCc2cnco2)cc1` [Compound 230, 1,3-oxazol-5-ylmethyl N-{4-[(1S)-1-{[(1R,3r,5S)-6,6-difluorobicyclo[3.1.0]hexan-3-yl]formamido}ethyl]phenyl}carbamate]: the “AC1.4 Human” value turned out to be 2.13 µM and the EC50 amounted to 15.3 µM.

As to `Cc1ccc(C(=O)NCc2ccc(NC(=O)OCc3ccncc3)cc2)cn1` [Compound 37, pyridin-4-ylmethyl (4-((6-methylnicotinamido)methyl)phenyl)carbamate], the “AC1.4 Human” value came out at 0.41 µM and the EC50 is 3.67 µM.

As to `CC(=O)N1CCC(Cc2ccc(NC(=O)OCc3cnco3)cc2)C2CC21` (stereo not drawn) [Compound 457, oxazol-5-ylmethyl (4-((2-acetyl-2-azabicyclo[4.1.0]heptan-5-yl)methyl)phenyl)carbamate], the “AC1.4 Human” value came out at 0.250 µM and the EC50 stood at 21.6 µM.

For the compound `O=C(Nc1ccc(CC2CCN(CC3CCO3)CC2)cc1)OCc1cnco1` (stereo not drawn) [Compound 471, oxazol-5-ylmethyl (4-((1-(oxetan-2-ylmethyl)piperidin-4-yl)methyl)phenyl)carbamate], the “AC1.4 Human” value was 0.50 µM and the EC50 was found to be 15 µM.

For `O=C(Nc1ccc(CC2CCNCC2)cc1)OCc1cnco1` [Compound 320, oxazol-5-ylmethyl (4-(piperidin-4-ylmethyl)phenyl)carbamate], the “AC1.4 Human” value was found to be 6.60 µM and the EC50 came out at 34.2 µM.

With `COC(=O)N1CCC(c2ccc(NC(=O)OCc3cnco3)cc2)CC1` [Compound 148, methyl 4-(4-(((oxazol-5-ylmethoxy)carbonyl)amino)phenyl)piperidine-1-carboxylate], the “AC1.4 Human” value was 1.23 µM and the EC50 was determined as 11.5 µM.

Regarding `Cc1ccc(Cc2ccc(NC(=O)OCc3ccncc3)cc2)cn1` [Compound 186, pyridin-4-ylmethyl (4-((6-methylpyridin-3-yl)methyl)phenyl)carbamate], the “AC1.4 Human” value came out at 1.61 µM and the EC50 is 3.38 µM.

`CN(C)C(=O)N1CCC(Cc2ccc(NC(=O)OCc3ccc(Cl)cc3)cc2)CC1` [Compound 58, 4-chlorobenzyl (4-((1-(dimethylcarbamoyl)piperidin-4-yl)methyl)phenyl)carbamate]: the “AC1.4 Human” value came to 0.55 µM and the EC50 turned out to be 1.73 µM.

Turning to `O=C(Nc1ccc(C2CCN(C3COC3)CC2)cc1)OCc1ccc(Cl)cc1` [Compound 198, (4-chlorophenyl)methyl N-{4-[1-(oxetan-3-yl)piperidin-4-yl]phenyl}carbamate], the “AC1.4 Human” value turned out to be 1.76 µM and the EC50 was determined as 8.59 µM.

For `O=C(Nc1ccc(CC2CC3(CCNC3)C2)c(F)c1)OCc1cnco1` (stereo not drawn) [Compound 378, oxazol-5-ylmethyl (4-((6-azaspiro[3.4]octan-2-yl)methyl)-3-fluorophenyl)carbamate], the “AC1.4 Human” value was 0.38 µM and the EC50 was 18.6 µM.

With `Cc1ncc(C(=O)N(C)Cc2ccc(NC(=O)OCc3ccc(Cl)cc3)cc2)o1` [Compound 85, (4-chlorophenyl)methyl N-(4-{[N-methyl-1-(2-methyl-1,3-oxazol-5-yl)formamido]methyl}phenyl)carbamate], the “AC1.4 Human” value is 0.67 µM and the EC50 was found to be 6.38 µM.

Consider `CC(C)n1nccc1C(=O)N(C)Cc1ccc(NC(=O)OCc2ccc(Cl)cc2)cc1` [Compound 131, (4-chlorophenyl)methyl N-(4-{[1-(2-isopropylpyrazol-3-yl)-N-methylformamido]methyl}phenyl)carbamate], for which the “AC1.4 Human” value worked out at 1.05 µM and the EC50 came to 2.55 µM.

Regarding `CC(O)(c1ccncc1)c1ccc(NC(=O)OCc2cnco2)cc1` (stereo not drawn) [Compound 296, oxazol-5-ylmethyl (4-(1-hydroxy-1-(pyridin-4-yl)ethyl)phenyl)carbamate], the “AC1.4 Human” value is 4.62 µM and the EC50 was found to be 14.3 µM.

Turning to `CS(=O)(=O)N1CCC2(CC(c3ccc(NC(=O)OCc4cnco4)cc3F)C2)C1` (single isomer, unassigned) [Compound 360], the “AC1.4 Human” value turned out to be 0.07 µM and the EC50 is 2.33 µM.

Turning to `C[C@@H](c1ccc(NC(=O)OCc2ccc(Cl)cc2)cc1)N(C)C(=O)N1CCCC1` [Compound 143, 4-chlorobenzyl (S)-(4-(1-(N-methylpyrrolidine-1-carboxamido)ethyl)phenyl)carbamate], the “AC1.4 Human” value was 1.18 µM and the EC50 was 10.8 µM.

On to `O=C(Nc1ccc(CNC(=O)c2ccc(C(F)(F)F)nc2)cc1)OCc1ccc(Cl)cc1` [Compound 239, (4-chlorophenyl)methyl N-[4-({[6-(trifluoromethyl)pyridin-3-yl]formamido}methyl)phenyl]carbamate], for which the “AC1.4 Human” value was found to be 2.32 µM and the EC50 is 1.89 µM.

Regarding `O=C(Nc1ccc(CC2CC3CCC(C2)N3C(=O)N2CCCCC2)cc1)OCc1cnco1` (stereo not drawn) [Compound 390, oxazol-5-ylmethyl (4-((8-(piperidine-1-carbonyl)-8-azabicyclo[3.2.1]octan-3-yl)methyl)phenyl)carbamate], the “AC1.4 Human” value is 0.13 µM and the EC50 stood at 1.8 µM.

As to `Cc1nn(C)c(C(=O)N[C@@H](C)c2ccc(NC(=O)OCc3ccc(Cl)cc3)cc2)c1C` [Compound 12, (4-chlorophenyl)methyl N-{4-[(1S)-1-[(2,4,5-trimethylpyrazol-3-yl)formamido]ethyl]phenyl}carbamate], the “AC1.4 Human” value was found to be 0.22 µM and the EC50 stood at 0.34 µM.

On to `NC(=O)N1CCC(Cc2ccc(NC(=O)OCc3ccc(Cl)cc3)cc2)CC1` [Compound 62, 4-chlorobenzyl (4-((1-carbamoylpiperidin-4-yl)methyl)phenyl)carbamate], for which the “AC1.4 Human” value amounted to 0.57 µM and the EC50 worked out at 2.64 µM.

`CC(C)C(=O)N1CC2CC(C1)C2Cc1ccc(NC(=O)OCc2cnco2)cc1` (stereo not drawn) [Compound 437, oxazol-5-ylmethyl (4-((3-isobutyryl-3-azabicyclo[3.1.1]heptan-6-yl)methyl)phenyl)carbamate]: the “AC1.4 Human” value came out at 0.27 µM and the EC50 stood at 9.67 µM.

As to `C[C@H](NC(=O)C1(C)COC1)c1ccc(NC(=O)OCc2ccc(Cl)cc2)cc1` [Compound 189, 4-chlorobenzyl (S)-(4-(1-(3-methyloxetane-3-carboxamido)ethyl)phenyl)carbamate], the “AC1.4 Human” value is 1.64 µM and the EC50 was found to be 18.6 µM.

Take `CN(Cc1ccc(NC(=O)OCc2ccc(Cl)cc2)cc1)C(=O)c1cn[nH]c1F` [Compound 69, (4-chlorophenyl)methyl N-(4-{[1-(3-fluoro-2H-pyrazol-4-yl)-N-methylformamido]methyl}phenyl)carbamate]: the “AC1.4 Human” value was determined as 0.59 µM and the concentration for a half-maximal effect (EC50) came to 3.07 µM.

In the case of `CC(C)C(=O)N1C2CCC1CC(Cc1ccc(NC(=O)OCc3cnco3)cc1)C2` (stereo not drawn) [Compound 409, oxazol-5-ylmethyl (4-((8-isobutyryl-8-azabicyclo[3.2.1]octan-3-yl)methyl)phenyl)carbamate], the “AC1.4 Human” value is 0.20 µM and the EC50 turned out to be 26.8 µM.

`CN(C)S(=O)(=O)N1CCC(c2ccc(NC(=O)OCc3cnco3)cc2)CC1` [Compound 432, oxazol-5-ylmethyl (4-(1-(N,N-dimethylsulfamoyl)piperidin-4-yl)phenyl)carbamate]: the “AC1.4 Human” value came to 0.07 µM and the EC50 is 4.73 µM.

Consider `COc1ncc(C(=O)NCc2ccc(NC(=O)OCc3ccc(Cl)cc3)cc2)cn1` [Compound 162, (4-chlorophenyl)methyl N-(4-{[(2-methoxypyrimidin-5-yl)formamido]methyl}phenyl)carbamate], for which the “AC1.4 Human” value was determined as 1.36 µM and the EC50 was determined as 4.5 µM.

For the compound `O=C(Cc1ccc(NC(=O)OCc2ccc(Cl)cc2)cc1)NC1COC1` [Compound 339, 4-chlorobenzyl (4-(2-(oxetan-3-ylamino)-2-oxoethyl)phenyl)carbamate], the “AC1.4 Human” value came out at 10.65 µM and the EC50 was 45.5 µM.

With `O=C(Nc1ccc(Cc2ccncc2)cc1)OCc1ccnnc1` [Compound 326, pyridazin-4-ylmethyl (4-(pyridin-4-ylmethyl)phenyl)carbamate], the “AC1.4 Human” value was 8.05 µM and the EC50 is 31.9 µM.

For `CC(C)C(=O)N1CCC2(CC(c3ccc(NC(=O)OCc4cnco4)cc3F)C2)C1` (single isomer, unassigned) [Compound 362], the “AC1.4 Human” value turned out to be 0.05 µM and the EC50 was 4.6 µM.

As to `C[C@H](NC(=O)c1cc(C(F)F)nn1C)c1ccc(NC(=O)OCc2ccc(Cl)cc2)cc1` [Compound 259], the “AC1.4 Human” value turned out to be 2.75 µM and the EC50 stood at 13.9 µM.

Turning to `Cc1ccc(Cc2ccc(NC(=O)OCc3ccc(C(F)F)cc3)cc2)cn1` [Compound 328, (4-(difluoro-13-methyl)phenyl)methyl (4-((6-methylpyridin-3-yl)methyl)phenyl)carbamate], the “AC1.4 Human” value stood at 8.56 µM and the EC50 worked out at 36.3 µM.

On to `Cc1ccc(C(=O)NCc2ccc(NC(=O)OCc3ccc(F)cc3)cc2)cn1` [Compound 227, 4-fluorobenzyl (4-((6-methylnicotinamido)methyl)phenyl)carbamate], for which the “AC1.4 Human” value is 2.11 µM and the EC50 was determined as 3.47 µM.

Turning to `O=C(Nc1ccc(C2CCN(S(=O)(=O)N3CCC3)CC2)cc1)OCc1cnco1` [Compound 428, oxazol-5-ylmethyl (4-(1-(azetidin-1-ylsulfonyl)piperidin-4-yl)phenyl)carbamate], the “AC1.4 Human” value is 0.07 µM and the EC50 is 2.94 µM.

As to `C[C@H](NC(=O)c1ccnn1C)c1ccc(NC(=O)OCc2ccc(Cl)cc2)cc1` [Compound 149, (4-chlorophenyl)methyl N-{4-[(1S)-1-[(2-methylpyrazol-3-yl)formamido]ethyl]phenyl}carbamate], the “AC1.4 Human” value was determined as 1.23 µM and the EC50 is 7 µM.
